Source: patent EP1347751B1, “METHODS OF TREATING BONE CANCER AND THE PAIN ASSOCIATED THEREWITH USING ENDOTHELIN ANTAGONISTS” (ABBOTT LABORATORIES, priority 2000, dated 2002)

Experiments:
Acid Phosphatase (ACP) = experiment: Acid Phosphatase levels in serum of treated subjects (Sigma Diagnostics ACP Procedure No. 435); type: in vivo, human; details: men with hormone refractory prostate cancer, treated vs placebo, AUC, Figure 7
Method: (§1) Studies were performed on male subjects with asymptomatic hormone refractory prostate cancer with rising PSA levels and on male subjects with symptomatic hormone refractory prostate cancer with rising PSA levels and pain. Subjects in the phase II studies had castrate levels of testosterone, either due to pharmacologic intervention, via leuprolide (Lupron®) or goserelin (Zoladex®), or via surgical castration. Subjects received ABT-627 or placebo. The following tests were conducted: • ABT-627 was formulated in 2.5 and 10 mg doses. An oral liquid formulation of ABT-627 was also prepared as follows: 1 mg/ml ABT-627, 50% glycerin, 14% alcohol, and water. Matching placebos were also provided. […]
The effect of ABT-627 administration on Acid Phosphatase levels in human subject serum samples was determined at Quintiles Laboratories using the chemical test described in Sigma Diagnostics Acid Phosphatase (ACP) Procedure No. 435. […] The alpha-naphthol immediately reacts with fast red TR salt to produce a yellow chromophore with an absorbance maximum at 405 nm. The rate of increase in absorbance at 405 nm is directly proportional to ACP activity in the sample. ACP activity was determined in the presence and absence of L-tartrate, the difference being attributed to prostatic acid phosphatase activity. […]

Chromagranin-A = Chromagranin-A levels in serum of treated subjects (two site chemiluminescence assay, ICMA); type: in vivo, human; details: men with hormone refractory prostate cancer, 2.5 mg/day, AUC, Figure 8
Method: (§2) Studies were performed on male subjects with asymptomatic hormone refractory prostate cancer with rising PSA levels and on male subjects with symptomatic hormone refractory prostate cancer with rising PSA levels and pain. Subjects in the phase II studies had castrate levels of testosterone, either due to pharmacologic intervention, via leuprolide (Lupron®) or goserelin (Zoladex®), or via surgical castration. Subjects received ABT-627 or placebo. The following tests were conducted: • ABT-627 was formulated in 2.5 and 10 mg doses. An oral liquid formulation of ABT-627 was also prepared as follows: 1 mg/ml ABT-627, 50% glycerin, 14% alcohol, and water. Matching placebos were also provided.
(§3) A number of recognized or putative biochemical markers of disease progression have been used to monitor treatment of individuals with prostate cancer. […]
The effect of ABT-627 adminstration on Chromagranin-A levels in human serum samples was determined by proprietary assay conducted at the Nichols Institute. […] The bound, acridinium-labeled material produces light that is detected in a luminometer after addition of triggering agents. […]

[1] = test system: bone alkaline phosphatase (BAP); experiment: Bone Alkaline Phosphatase levels in treated subjects (Alkphase-B assay); type: in vivo, human; details: men with hormone refractory prostate cancer; 10 mg vs placebo; AUC, Figure 5
Method: as §2
(§4) Markers of osteoblastic activity were assessed using urine samples. Bone markers include bone alkaline phosphatase (BAP), deoxypridinoline, and N-telopeptide of Type I collagen. Blood samples were collected prior to dosing on Day 1, Day 42, Day 84, Day 168, and every 28 days after Day 168, with a final collection on the last day of the study.
Bone Alkaline Phosphatase levels were determined using the bone-specific Alkphase-B® assay published by Metra Biosystems (Mountain View, CA).

[2] = Bone scan (Tc-99m phosphonate, bone scan index) in treated subjects; type: in vivo, human; details: men with hormone refractory prostate cancer; bone scans; 10 mg versus placebo; Figure 6
Method: as §2
Bone scans were performed with an NDA approved, Tc-99m phosphonate type radiopharmaceutical. This technique uses whole body format (skull to feet) so that anterior and posterior images are presented when using a 510 K-approved gamma camera. […] Each site was evaluated against a confidence score of 1 to 5, where 1 is negative, 2 is probably negative, 3 is equivocal, 4 is probably positive, and 5 is definitely positive. […] In addition, in a blinded study, a reference nuclear medicine physician interpreted the bone scans quantitatively as follows: the percent of involved bone was estimated for each individual bone, and the individual bone involvement was summed to calculate a global percent bone scan index (BSI). […]

[3] = Visual Analog Scale (VAS) pain assessment in treated subjects; type: in vivo, human; details: men with symptomatic hormone refractory prostate cancer; 2.5 mg or 10 mg vs placebo; independent of the effects of morphine; AUC, Figure 3
Method: as §1
During the course of the study, pain asessments were done daily, at bedtime, by the subject. […] The log also contained a table on which was recorded all daily pain medication consumed by the patient. […] Clinical personnel who received the logs measured the score by measuring the distance (in mm) from the "no pain" end mark to the point where the subject's line crossed the VAS line. […]
The weekly VAS scores were calculated excluding the lowest and highest score for each week and averaging the remaining five scores. […]

[4] = test system: carboxyterminal cross-linked telopeptide of type I collagen (ICTP); experiment: Crosslinked N-telopeptide levels in treated subjects (DiaSorin ICTP radioimmunoassay); type: in vivo; details: men with hormone refractory prostate cancer; human serum; 10 mg vs placebo; AUC, Figure 4
Method: as §2, §4
Cross-linked N-telopeptide levels were determined using the DiaSorin (Stillwater, MN) assay for the quantitative determination of carboxyterminal cross-linked telopeptide of type I collagen (ICTP) in human serum by equilibrium radioimmunoassay (RIA). […] The bound tracer in the pellet was counted with a gamma counter. […]

Interleukin-6 = Interleukin-6 levels in serum of treated subjects (sandwich immunoassay); type: in vivo, human; details: men with hormone refractory prostate cancer, 2.5 mg or 10 mg vs placebo, AUC, Figure 1
Method: as §2, §3
The effect of ABT-627 adminstration on Interleukin-6 levels in human serum samples was determined at Quintiles Laboratories using a sandwich immunoassay. […] After incubation, the wells were washed, and the bound enzymatic activity was measured using a chromogenic substrate. […]

[5] = test system: prostate specific antigen (PSA); experiment: Prostate Specific Antigen level assay (Chiron ACS: Centaur PSA2 sandwich immunoassay) in serum of treated subjects; type: in vivo, human; details: men with hormone refractory prostate cancer; oral 2.5 mg or 10 mg vs placebo; AUC, Figure 2
Method: as §2, §3
The effect of ABT-627 administration on prostate specific antigen (PSA) levels in human subject serum samples was determined using the procedure described in the Chiron Diagnostics ACS: Centaur PSA2 Assay. […]
Briefly, a subject population was treated with a placebo or 2.5 mg or 10 mg of ABT-627. […] A direct relationship exists between the amount of PSA present in the patient sample and the RLU's (relative light units) detected.

## CCCCN(CCCC)C(=O)CN1C[C@H](c2ccc3c(c2)OCO3)[C@@H](C(=O)O)[C@@H]1c1ccc(OC)cc1 [ABT-627]
Acid Phosphatase (ACP)
  average change from baseline for acid phosphatase: decreased
  rate of increase for acid phosphatase: decreased
Chromagranin-A
  average change from baseline for Chromagranin-A: higher
[1]
  BAP levels: decreased
[2]
  proportion of total skeketal involvement: decrease in the proportion of total skeketal involvement
[3]
  VAS scores (pain): decrease in pain
[4]
  Crosslinked N-telopeptide levels: decreased
Interleukin-6
  average change in baseline for Interleukin-6: lower
[5]
  rate of increase of PSA in the serum samples: decreases
